In patent US5916906A, “Compositions comprising nicotinylalanine and an inhibitor of glycine conjugation or vitamin B6” (priority 1997, dated 1999):

Key:
[1] = rodents (Shibata 1989); cited from earlier work
HIV-1 infected cells = details: cultures of HIV-1 infected cells (Yamagoe 1991); cited from earlier work
[2] = system: poly (ADP-ribose) synthetase; details: crude or partially purified enzyme (Banasik 1992); cited from earlier work
[3] = human, in vivo; cited from earlier work
[4] = Plasma nicotinamide, NAL and NAL-X levels by HPLC after i.p. nicotinylalanine with or without ASA in uninfected mice; format: in vivo, C57BL/6 mice; details: ASA at 20 and 100 mg/kg added to NAL
Method: The concentration of nicotinamide and its major metabolites were determined by comparison of peak area ratios of the unknown versus internal standard (6-methylnicotinamide, Sigma Chemical Company) to the standard curves run in control mouse blood plasma.
Mice were treated with racemic nicotinylalanine alone (400 mg/kg) or in combination with acetyl salicylic acid (ASA) at a dose of either 20 mg/kg or 100 mg/kg body weight. […] Control mice received the vehicle for the drug compositions, being phosphate buffered saline (PBS), at the same volume on the same dose schedule as the drug-treated mice. Chronic dosing was performed daily for two weeks, Monday through Friday, and one group of mice received only a single (acute) dose of nicotinylalanine. All mice were killed two hours after their final dose and blood was collected by cardiac puncture and stored on ice, until centrifugation in a microfuge at 10,000 rpm to obtain plasma.
Concentrations of nicotinamide, nicotinamide-oxide, 1-methyl-nicotinamide, and nicotinylalanine extracted from 90% methanol, dried under N2, and reconstituted in water as above were determined by comparison of the peak area ratios of the unknown vs. the internal standard to the standard curve. Concentrations of the unidentified nicotinylalanine metabolite (NAL-X) were determined in the same way as above, except peaks were compared to the standard curve for known nicotinylalanine. The results are expressed as nanomoles of nicotinamide and nicotinylalanine per ml of plasma (nmol/ml).

[5] = humans (Levy 1965); cited from earlier work
kynureninase = details: co-factor for kynureninase (Takeuchi and Shibata 1984); cited from earlier work

## NC(=O)c1cccnc1 [nicotinamide]
[1]
  Fraction converted to nicotinuric acid: approximately 16%
HIV-1 infected cells
  Antiviral activity (in words): significant antiviral activity
[2]
  Inhibition of poly (ADP-ribose) synthetase (in words): effective inhibitors of poly (ADP-ribose) synthetase
[3]
  Side effects: without any significant side effects

## CC(=O)Oc1ccccc1C(=O)O [ASA, acetylsalicylic acid, reference compound]
[4]
  Effect of added ASA on NAL-dependent nicotinamide plasma levels: increases the NAL-dependent nicotinamide plasma levels in a dose-related manner
[5]
  Fraction conjugated to form salicyluric acid: up to 75%

## NC(=O)c1ccccc1 [benzamide]
HIV-1 infected cells
  Antiviral activity (in words): significant antiviral activity

## Cc1ncc(COP(=O)(O)O)c(C=O)c1O [pyridoxal phosphate]
kynureninase
  Rate of conversion of nicotinylalanine to nicotinamide (in words): increases the rate of conversion of nicotinylalanine to nicotinamide
